Test results from publication PMC10313662, “Structural insights into neurokinin 3 receptor activation by endogenous and analogue peptide agonists” (Cell Discovery, 2023).
Each block holds one molecule with its values, some of them ahead of it. Ends that are not written are not given here.

What was measured:
wild-type NK3R = target: T1, wild-type NK3R (Homo sapiens, UniProt P29371); assay: IP-one accumulation assay, wild-type NK3R; type: cell-based
T1 construct: FLAG (DYKDDDDK); expressed in transfected cells; host or cells: HEK293T
T1 sequence (P29371 1-465): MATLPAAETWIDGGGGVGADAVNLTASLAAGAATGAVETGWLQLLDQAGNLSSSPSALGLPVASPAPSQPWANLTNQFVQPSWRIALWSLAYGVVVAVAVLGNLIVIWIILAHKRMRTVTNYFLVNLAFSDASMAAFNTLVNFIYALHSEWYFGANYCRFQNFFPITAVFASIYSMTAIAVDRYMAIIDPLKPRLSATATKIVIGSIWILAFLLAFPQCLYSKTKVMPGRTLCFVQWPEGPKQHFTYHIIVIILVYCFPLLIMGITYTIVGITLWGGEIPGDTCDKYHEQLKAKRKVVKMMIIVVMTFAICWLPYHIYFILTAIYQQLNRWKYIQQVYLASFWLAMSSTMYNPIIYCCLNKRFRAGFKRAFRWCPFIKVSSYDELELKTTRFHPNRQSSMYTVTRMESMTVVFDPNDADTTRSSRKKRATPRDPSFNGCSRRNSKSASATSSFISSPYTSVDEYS

NK1R, NK2R, NK3R = conditions: ref [21]; cited from earlier work
NK3R V235A [1] = target: T2, NK3R V235A (human, UniProt P29371 1-465, NK3R-V235^ECL2 to alanine)
T2 sequence (looked up): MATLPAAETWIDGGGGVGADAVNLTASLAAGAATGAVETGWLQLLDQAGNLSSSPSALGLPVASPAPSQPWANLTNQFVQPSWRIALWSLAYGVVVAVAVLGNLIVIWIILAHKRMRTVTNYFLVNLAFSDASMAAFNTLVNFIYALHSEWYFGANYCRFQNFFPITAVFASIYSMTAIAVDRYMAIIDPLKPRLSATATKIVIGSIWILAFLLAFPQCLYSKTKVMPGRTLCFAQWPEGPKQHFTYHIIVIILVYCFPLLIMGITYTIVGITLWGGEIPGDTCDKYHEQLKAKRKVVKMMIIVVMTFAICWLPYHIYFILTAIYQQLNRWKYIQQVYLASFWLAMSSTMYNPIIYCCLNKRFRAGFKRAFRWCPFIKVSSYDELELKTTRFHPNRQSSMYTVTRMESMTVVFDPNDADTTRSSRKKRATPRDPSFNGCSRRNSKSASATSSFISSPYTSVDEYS

NK3R V235A [2] = target: T2, NK3R V235A; assay: cell-based or functional assay

Molecule: CSCC[C@H](NC(=O)[C@H](CC(C)C)NC(=O)CNC(=O)[C@@H](NC(=O)[C@H](Cc1ccccc1)NC(=O)[C@H](Cc1ccccc1)NC(=O)[C@H](CC(=O)O)NC(=O)[C@H](Cc1c[nH]cn1)NC(=O)[C@H](CCSC)NC(=O)[C@@H](N)CC(=O)O)C(C)C)C(N)=O [NKB, neurokinin B]
- Emax (wild-type NK3R): 100%

Molecule: CSCC[C@H](NC(=O)[C@H](CC(C)C)NC(=O)CNC(=O)[C@H](Cc1ccccc1)NC(=O)[C@H](Cc1ccccc1)NC(=O)[C@H](CCC(N)=O)NC(=O)[C@H](CCC(N)=O)NC(=O)[C@@H]1CCCN1C(=O)[C@H](CCCCN)NC(=O)[C@@H]1CCCN1C(=O)[C@@H](N)CCCNC(=N)N)C(N)=O [SP, substance P]
- Emax (wild-type NK3R): 100%

Molecule: neurokinin A [NKA]
- Preferential receptor activation/binding, in words (NK1R, NK2R, NK3R): preferentially bind to NK1R and NK2R, respectively

B2: neurokinin B (peptide, UniProt Q9UHF0 81-90, looked up)
peptide: DMHDFFVGLM-NH2
- IP-one accumulation, HEK293T cells; fold decrease in receptor activation against wild-type NK3R, stimulated by NKB (NK3R V235A [2]): 5.2 fold

The remaining lines, values ahead:

- IP-one accumulation, HEK293T cells; fold decrease in receptor activation against wild-type NK3R, stimulated by senktide (NK3R V235A [1]): 64 fold
Molecule: senktide (suc-(Asp6, MePhe8) SP (6–11)) (peptide)

- IP-one accumulation, HEK293T cells; fold decrease in receptor activation against wild-type NK3R, stimulated by SP (NK3R V235A [2]): 30 fold
B1: substance P (peptide, UniProt P20366 58-68, looked up)
peptide: RPKPQQFFGLM-NH2
